IC50 data for 3 molecules are collected here from BindingDB's records for doi:10.1021/jm0211063 (Sapienza University of Rome, 2003).

The target in assay [1] is T1, Gag-Pol polyprotein [588-1127,Y768C]/[588-1147,Y768C] (Human immunodeficiency virus 1, UniProt P04585, Y768C).
T1 construct: 588-1127; 588-1147
The assay is described as follows: HIV-1 RT Assay. Conditions: pH 7.8; 37 °C.

Assay [2] addresses T2, Gag-Pol polyprotein [588-1027,K690N]/[588-1147,K690N] (Human immunodeficiency virus 1, UniProt P04585, K690N).
T2 construct: 588-1027; 588-1147
The assay is described as follows: HIV-1 RT Assay. Conditions: pH 7.8; 37 °C.

SMILES strings stand for the structures.

As usually defined, the IC50 is the concentration that inhibits the measured activity by half. A high value points to weaker potency in that assay.

On to `Cc1ccc(S(=O)(=O)c2c(C(N)=O)[nH]c3ccc(Cl)cc23)cc1` [5-chloro-3-[(4-methylbenzene)sulfonyl]-1H-indole-2-carboxamide], for which the IC50 in assay [1] was 110 nM; in assay [2], > 5000 nM.
Taken in the same sequence, the figures for `Cc1cc(C)cc(S(=O)(=O)c2c(C(N)=O)[nH]c3ccc(Cl)cc23)c1` [5-chloro-3-[(3,5-dimethylbenzene)sulfonyl]-1H-indole-2-carboxamide] were 130 nM and > 5000 nM.
Taken in the same sequence, the figures for `NC(=O)c1[nH]c2ccc(Cl)cc2c1S(=O)(=O)c1ccccc1` [5Cl3PhSO2-2IndolCONH2] were 160 nM and > 5000 nM.
